Test results reported in patent US10463671B2, “Combination therapy for treating cancer” (Epizyme, Inc., priority 2013, dated 2019).

Columns and labels:
[1] = tested on: WSU-DLCL2 cells; experiment: Medium throughput combination proliferation assay (CellTiter-Glo, Chou-Talalay CI / potency shift)
[2] = tested on: glucocorticoid signaling genes in DOHH2 cells; experiment: RT2 Glucocorticoid Signaling PCR array; assay type: cell-based; details: vs DMSO; DOHH2, 4 days
[3] = tested on: glucocorticoid signaling genes in OCI-LY19 cells; experiment: RT2 Glucocorticoid Signaling PCR array; assay type: cell-based; details: compared to DMSO; OCI cell line; 4 days
[4] = tested on: glucocorticoid signaling genes in SU-DHL10 cells; experiment: RT2 Glucocorticoid Signaling PCR array; assay type: cell-based; parameters: IL10 Ct Values / TNF Ct Values: unit not given here; details: SUDHL10; 4 days

## CCN(c1cc(-c2ccc(CN3CCOCC3)cc2)cc(C(=O)NCc2c(C)cc(C)[nH]c2=O)c1C)C1CCOCC1 [Compound 44]
[1]; WSU-DLCL2 (FIG. 3A)
  maximum reduction in Compound 44 IC50 with Prednisolone: 24 fold
[1]; WSU-DLCL2, 100 nM Dexamethasone
  potency enhancement of Compound 44 at biologically relevant concentration of Dexamethasone: 15 fold
[1]; WSU-DLCL2, 1 μM Prednisolone
  potency enhancement of Compound 44 at biologically relevant concentration of Prednisolone: 7 fold
[2]
  FKBP5 ΔΔCT: −0.032
  SPSB1 ΔΔCT: −0.025
[3]
  ΔΔCT, ADARB1: −0.788
  ΔΔCT, ARID5B: 0.231
  ΔΔCT, PDCD7: 0.024
  ΔΔCT, SPHK1: 0.018
[4]
  ACTB Ct Values: 14.828
  ADARB1 Ct Values: 31.215
  AFF1 Ct Values: 29.849
  AK2 Ct Values: 20.974
  AMPD3 Ct Values: 27.654
  ANGPTL4 Ct Values: 32.107
  ANXA4 Ct Values: 24.961
  ARID5B Ct Values: 28.208
  ASPH Ct Values: 23.837
  ATF4 Ct Values: 20.607
  B2M Ct Values: 19.147
  BCL6 Ct Values: 22.639
  CEBPA Ct Values: 28.900
  CEBPB Ct Values: 26.624
  CREB1 Ct Values: 23.809
  CREB3 Ct Values: 26.452
  CREB3L4 Ct Values: 26.139
  CYB561 Ct Values: 37.004
  DDIT4 Ct Values: 26.109
  DUSP1 Ct Values: 31.300
  EHD3 Ct Values: 26.768
  FKBP5 Ct Values: 22.883
  FOSL2 Ct Values: 32.931
  GAPDH Ct Values: 17.793
  GDPD1 Ct Values: 30.943
  GOT1 Ct Values: 25.306
  H6PD Ct Values: 28.126
  HNRPLL Ct Values: 23.764
  HPRT1 Ct Values: 20.615
  IL1RN Ct Values: 32.182
  IL6R Ct Values: 33.807
  IL10 Ct Values: 32.505
  KLF9 Ct Values: 32.525
  KLF13 Ct Values: 24.536
  LOX Ct Values: 35.385
  MERTK Ct Values: 34.652
  MT2A Ct Values: 37.225
  NFKBIA Ct Values: 23.654
  NR3C1 Ct Values: 23.754
  PDCD7 Ct Values: 25.123
  PDP1 Ct Values: 26.175
  PER1 Ct Values: 27.710
  PER2 Ct Values: 24.780
  PIK3R1 Ct Values: 24.661
  PLEKHF1 Ct Values: 28.979
  POU2F1 Ct Values: 25.842
  POU2F2 Ct Values: 25.098
  RASA3 Ct Values: 24.277
  RGS2 Ct Values: 25.587
  RHOB Ct Values: 27.829
  RHOJ Ct Values: 36.530
  RPLP0 Ct Values: 16.821
  SESN1 Ct Values: 27.480
  SGK1 Ct Values: 25.358
  SLC10A6 Ct Values: 37.060
  SLC19A2 Ct Values: 30.597
  SLC22A5 Ct Values: 30.263
  SNTA1 Ct Values: 27.003
  SPHK1 Ct Values: 27.804
  SPSB1 Ct Values: 26.133
  STAT5A Ct Values: 25.275
  STAT5B Ct Values: 24.281
  TBL1XR1 Ct Values: 21.846
  TNF Ct Values: 23.725
  TNFAIP3 Ct Values: 27.677
  TSC22D3 Ct Values: 28.871
  USP2 Ct Values: 23.434
  USP54 Ct Values: 27.789
  VDR Ct Values: 29.514
  VLDLR Ct Values: 32.904
  ZFP36 Ct Values: 26.643
